Consider ten molecules from ChEMBL document CHEMBL4033746, “Synthesis, potential anti-inflammatory and analgesic activities study of (S)-N-substituted-1-phenyl-3,4-dihydroisoquinoline-2(1H)-carboxamides” (Bioorg Med Chem Lett, 2017).

The term inhibition in vivo denotes the percentage by which the read-out fell short of the control. As a reminder, the IC50 is the point on the concentration scale where inhibition reaches its midpoint.

The subject of assay [1] is Mus musculus. The experiment in a line: Analgesic activity in mouse at 100 mg/kg, ip measured after 60 mins at 58 degC by hot plate method. Format: functional.
For assay [2], the system named is Mus musculus. The experiment in a line: Anti-inflammatory activity in mouse model of xylene-induced ear edema assessed as inhibition of ear edema at 100 mg/kg, ip pre-treated before xylene injection and measured 1 hr post xylene injection relative to untreated control. The format is functional.
The test system of assay [3] is Mus musculus. The experiment in a line: Anti-inflammatory activity in mouse model of xylene-induced ear edema assessed as inhibition of ear edema at 10 to 30 mg/kg, ip pre-treated before xylene injection and measured 1 hr post xylene injection relative to untreated control. The format is functional, organism-based.
In assay [4] the target is T1, Prostaglandin G/H synthase 1 (Ovis aries, UniProt P05979).
T1 sequence (P05979 whole entry): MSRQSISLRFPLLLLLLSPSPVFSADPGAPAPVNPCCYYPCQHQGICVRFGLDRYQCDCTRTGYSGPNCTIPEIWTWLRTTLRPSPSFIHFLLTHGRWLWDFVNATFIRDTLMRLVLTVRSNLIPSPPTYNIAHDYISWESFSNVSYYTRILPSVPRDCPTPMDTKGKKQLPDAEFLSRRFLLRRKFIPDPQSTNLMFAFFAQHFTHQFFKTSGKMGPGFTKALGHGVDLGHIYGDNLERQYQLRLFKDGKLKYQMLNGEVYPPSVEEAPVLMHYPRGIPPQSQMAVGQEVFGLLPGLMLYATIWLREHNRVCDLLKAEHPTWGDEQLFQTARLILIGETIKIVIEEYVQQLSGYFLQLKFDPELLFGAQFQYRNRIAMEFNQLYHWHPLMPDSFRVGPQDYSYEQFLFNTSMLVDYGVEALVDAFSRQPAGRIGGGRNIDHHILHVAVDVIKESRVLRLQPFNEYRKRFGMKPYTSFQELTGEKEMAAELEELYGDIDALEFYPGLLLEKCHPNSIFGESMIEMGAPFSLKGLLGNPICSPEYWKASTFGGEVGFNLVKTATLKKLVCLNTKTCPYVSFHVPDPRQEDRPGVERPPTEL
The experiment in a line: Inhibition of ovine COX1.

Assay [5] deals with Mus musculus. The experiment in a line: Analgesic activity in mouse at 30 mg/kg, ip measured after 60 mins at 58 degC by hot plate method. The format is functional.
In assay [6] the test system is Mus musculus. Kind of assay: Anti-inflammatory activity in mouse model of xylene-induced ear edema assessed as inhibition of ear edema at 10 mg/kg, ip pre-treated before xylene injection and measured 1 hr post xylene injection relative to untreated control. Format: functional.
The test system of assay [7] is Mus musculus. The experiment in a line: Anti-inflammatory activity in mouse model of xylene-induced ear edema assessed as inhibition of ear edema at 20 mg/kg, ip pre-treated before xylene injection and measured 1 hr post xylene injection relative to untreated control. The format is functional.
The test system of assay [8] is Mus musculus. The experiment in a line: Analgesic activity in mouse at 20 mg/kg, ip measured after 60 mins at 58 degC by hot plate method. Format: functional. In general terms: Thermal pain tests record how soon the animal reacts.
Assay [9] concerns Mus musculus. The experiment in a line: Anti-inflammatory activity in mouse model of xylene-induced ear edema assessed as inhibition of ear edema at 30 mg/kg, ip pre-treated before xylene injection and measured 1 hr post xylene injection relative to untreated control. The format is functional.
Assay [10] relates to Mus musculus. The experiment in a line: Analgesic activity in mouse at 10 mg/kg, ip measured after 60 mins at 58 degC by hot plate method. Format: functional.

As for `O=C(N(c1ccccc1)c1ccccc1)N1CCc2ccccc2[C@@H]1c1ccccc1`, in assay [1], the Activity was determined as 73.3%. Moreover, the inhibition in vivo at 100 mg/kg in [2] was 86.3%.
For `O=C(Nc1cccc(F)c1)N1CCc2ccccc2[C@@H]1c1ccccc1`, in assay [1], the Activity worked out at 89.8%. In addition, the inhibition in vivo at 100 mg/kg in assay [2] came out at 84.9%.
`O=C(Nc1c(Cl)cccc1Cl)N1CCc2ccccc2[C@@H]1c1ccccc1` came in with an Activity in assay [1] of 100%. Further, the inhibition in vivo at 100 mg/kg in assay [2] stood at 92.7%. Also, the inhibition entry in assay [3] is “Dose-dependent effect”.
For `O=C(NCc1ccccc1)N1CCc2ccccc2[C@@H]1c1ccccc1`, the Activity in assay [1] amounted to 96.3%. In addition, in assay [2], the inhibition in vivo at 100 mg/kg amounted to 77.4%.
For the molecule `O=C(Nc1cccc(Cl)c1)N1CCc2ccccc2[C@@H]1c1ccccc1`, the Activity in assay [1] came out at 100%. In assay [2], the inhibition in vivo at 100 mg/kg amounted to 88%.
The corresponding values for `Cc1cccc(NC(=O)N2CCc3ccccc3[C@@H]2c2ccccc2)c1` are 99.2% and 86.4%.
On to `O=C(Nc1ccccc1)N1CCc2ccccc2[C@@H]1c1ccccc1`, for which half-maximal inhibition in assay [4] (IC50) required 5.42 µM. Further, the Activity in assay [5] came out at 87.2%; in assay [8], 76.4%; in assay [1] it was 100%; in assay [10] it was 69.6%. Moreover, in assay [6], the inhibition in vivo at 10 mg/kg is 60.3%. For the same molecule, the inhibition in vivo at 20 mg/kg in [7] was found to be 69.5%. Moreover, the inhibition in vivo at 30 mg/kg in [9] was 74.7%. The inhibition in vivo at 100 mg/kg in assay [2] came out at 95%. Moreover, the inhibition entry in assay [3] is “Dose-dependent effect”.
On to `COc1ccc2c(c1)c(CC(=O)O)c(C)n2C(=O)c1ccc(Cl)cc1` [INDOMETHACIN], for which the inhibition in vivo at 10 mg/kg in assay [6] lay in the range of 51 to 90.4%. Besides, the Activity in assay [1] came to 98.6%; in assay [10], 73.7%.
For `O=C(Nc1cccc(Br)c1)N1CCc2ccccc2[C@@H]1c1ccccc1`, the IC50 in assay [4] is 7.85 µM. Further, the Activity in [5] came out at 80.2%; in [8], 63.7%; in assay [1], 89.8%; in [10] it was 58.7%. Besides, the inhibition in vivo at 10 mg/kg in assay [6] came to 44.2%. Moreover, the inhibition in vivo at 20 mg/kg in [7] is 51.7%. Besides, the inhibition in vivo at 30 mg/kg in assay [9] came to 61.2%. In addition, in assay [2], the inhibition in vivo at 100 mg/kg was 83.1%.
In [1], `COc1cccc(NC(=O)N2CCc3ccccc3[C@@H]2c2ccccc2)c1` gave an Activity of 94.6%. In addition, the inhibition in vivo at 100 mg/kg in assay [2] came to 85.9%.
